According to paper PMC2745596 (Bioorganic & Medicinal Chemistry Letters, 2008):

How the values were obtained:
SARS-CoV Urbani strain = type: cell-based
SARS-CoV 3CLpro = SARS-CoV 3CLpro (Severe acute respiratory syndrome coronavirus, UniProt P0C6X7); type: biochemical

O=C(On1nnc2ccccc21)c1ccc2[nH]ccc2c1 [Inhibitor 3]
antiviral activity (in words) (SARS-CoV Urbani strain): did not exhibit any antiviral activity

O=C(Oc1cncc(Cl)c1)c1cccc2[nH]ccc12 [Inhibitor 10]
potency enhancement over 5 (enzyme IC50) (SARS-CoV 3CLpro): 10 fold
